# US9730937B2, “RAF kinase modulator compounds and methods of use thereof” (AMBIT BIOSCIENCES CORPORATION, priority 2008, dated 2017)
# Tested on: panel of 290 distinct kinases (321 in the larger panel), excluding mutant variants
# Settings: asterisk: panel of 321 distinct kinases
row,Compound,S35
1,"COCCOc1cc2ncnc(Sc3cccc(NC(=O)Nc4cc(C(C)(CF)CF)nn4-c4ccccc4)c3)c2cc1OC [Ex 238, 1-[3-(1,3-difluoro-2-methylpropan-2-yl)-1-phenyl-1H-pyrazol-5-yl]-3-{3-[6-methoxy-7-(2-methoxyethoxy)quinazolin-4-ylthio]phenyl}urea]",D* (D > 0.40)
2,"COc1cc2ncnc(Oc3cccc(NC(=O)Nc4cc(C(F)(F)F)no4)c3)c2cc1OC [Ex 254, 1-(3-(6,7-dimethoxyquinazolin-4-yloxy)phenyl)-3-(3-(trifluoromethyl)isoxazol-5-yl)urea]",C* (0.20 < C ≦ 0.40)
3,"COCCOc1cc2ncnc(Oc3cccc(NC(=O)Nc4cc(C5CC5)no4)c3)c2cc1OC [Ex 214, 1-(3-cyclopropylisoxazol-5-yl)-3-(3-(6-methoxy-7-(2-methoxyethoxy)quinazolin-4-yloxy)phenyl)urea]",C* (0.20 < C ≦ 0.40)
4,"COCCOc1cc2ncnc(Oc3cccc(NC(=O)Nc4cc(C(F)(F)F)n(-c5ccccc5)n4)c3)c2cc1OC [Ex 225, 1-{3-[6-methoxy-7-(2-methoxyethoxy)quinazolin-4-yloxy]phenyl}-3-[1-phenyl-5-(trifluoromethyl)-1H-pyrazol-3-yl]urea]",C* (0.20 < C ≦ 0.40)
5,"COCCOc1cc2ncnc(Sc3cccc(NC(=O)Nc4ccc(C(F)(F)F)c(OC)c4)c3)c2cc1OC [Ex 233, 1-(3-methoxy-4-(trifluoromethyl)phenyl)-3-(3-(6-methoxy-7-(2-methoxyethoxy)quinazolin-4-ylthio)phenyl)urea]",C* (0.20 < C ≦ 0.40)
6,"COCCOc1cc2ncnc(Sc3cccc(NC(=O)Nc4cc(C(F)(F)F)nn4C)c3)c2cc1OC [Ex 239, 1-{3-[6-methoxy-7-(2-methoxyethoxy)quinazolin-4-ylthio]phenyl}-3-[1-methyl-3-(trifluoromethyl)-1H-pyrazol-5-yl]urea]",D* (D > 0.40)
7,"COCCOc1cc2ncnc(Oc3cccc(NC(=O)Nc4cc(C(F)(F)F)n(C)n4)c3)c2cc1OC [Ex 208, 1-{3-[6-methoxy-7-(2-methoxyethoxy)quinazolin-4-yloxy]phenyl}-3-[1-methyl-5-(trifluoromethyl)-1H-pyrazol-3-yl]urea]",C* (0.20 < C ≦ 0.40)
8,"COCCOc1cc2ncnc(Oc3cccc(NC(=O)Nc4cc(C(C)(C)COC)on4)c3)c2cc1OC [Ex 217, 1-(5-(1-methoxy-2-methylpropan-2-yl)isoxazol-3-yl)-3-(3-(6-methoxy-7-(2-methoxyethoxy)quinazolin-4-yloxy)phenyl)urea]",C* (0.20 < C ≦ 0.40)
9,"COc1cc2c(Oc3cccc(NC(=O)Nc4cc(C(C)(C)F)no4)c3)ncnc2cc1OCCN1CCOCC1 [Ex 251, 1-(3-(2-fluoropropan-2-yl)isoxazol-5-yl)-3-(3-(6-methoxy-7-(2-morpholinoethoxy)quinazolin-4-yloxy)phenyl)urea]",C* (0.20 < C ≦ 0.40)
10,"COCCOc1cc2ncnc(Oc3cccc(NC(=O)Nc4cc(C(C)(C)F)no4)c3)c2cc1OC [Ex 218, 1-(3-(2-fluoropropan-2-yl)isoxazol-5-yl)-3-(3-(6-methoxy-7-(2-methoxyethoxy)quinazolin-4-yloxy)phenyl)urea]",C* (0.20 < C ≦ 0.40)

# Same assay, conditions: kinase selectivity score, 290 distinct kinases; class symbols
row,Compound,S35
1,"COc1cc2ncnc(Oc3cccc(NC(=O)Nc4cc(C(C)(C)F)no4)c3)c2cc1OC [Ex 126, 1-(3-(6,7-dimethoxyquinazolin-4-yloxy)phenyl)-3-(3-(2-fluoropropan-2-yl)isoxazol-5-yl)urea]",C (0.20 < C ≦ 0.40)
2,"CCOc1cc2ncnc(Sc3cccc(NC(=O)Nc4cc(C(C)(C)C)on4)c3)c2cc1OC [Ex 50, 1-(5-tert-butylisoxazol-3-yl)-3-[3-(7-ethoxy-6-methoxyquinazolin-4-ylthio)phenyl]urea]",B (0.10 < B ≦ 0.20)

# Same assay, conditions: kinase selectivity score, value marked * (larger kinase panel); class symbols
row,Compound,S35
1,"COc1cc2ncnc(Sc3cccc(NC(=O)Nc4ccc(C(F)(F)F)cc4)c3)c2cc1OC [Ex 184, 1-(3-(6,7-dimethoxyquinazolin-4-ylthio)phenyl)-3-(4-(trifluoromethyl)phenyl)urea]",C* (0.20 < C ≦ 0.40)
2,"COc1cc2ncnc(Oc3cccc(NC(=O)Nc4ccc(C(F)(F)F)c(F)c4)c3)c2cc1OC [Ex 150, 1-(3-(6,7-dimethoxyquinazolin-4-yloxy)phenyl)-3-(3-fluoro-4-(trifluoromethyl)phenyl)urea]",C* (0.20 < C ≦ 0.40)

# Same assay, conditions: no asterisk: panel of 290 distinct kinases
row,Compound,S35
1,"COc1cc2ncnc(Sc3cccc(NC(=O)Nc4cc(C(C)(C)C)nn4-c4cccc(C(F)(F)F)c4)c3)c2cc1OC [Ex 380, 1-(3-tert-butyl-1-(3-(trifluoromethyl)phenyl)-1H-pyrazol-5-yl)-3-(3-(6,7-dimethoxyquinazolin-4-ylthio)phenyl)urea]",C (0.20 < C ≦ 0.40)
2,"COc1cc2ncnc(Oc3cccc(NC(=O)Nc4cc(C(C)(C)C)nn4-c4cccc(F)c4)c3)c2cc1OC [Ex 359, 1-(3-tert-butyl-1-(3-fluorophenyl)-1H-pyrazol-5-yl)-3-(3-(6,7-dimethoxyquinazolin-4-yloxy)phenyl)urea]",D (D > 0.40)
3,"CCOc1cc2c(Oc3cccc(NC(=O)Nc4cc(C(C)(C)C(F)(F)F)on4)c3)ncnc2cc1OC [Ex 260, 1-(3-(6-ethoxy-7-methoxyquinazolin-4-yloxy)phenyl)-3-(5-(1,1,1-trifluoro-2-methylpropan-2-yl)isoxazol-3-yl)urea]",C (0.20 < C ≦ 0.40)
4,"COc1cc2ncnc(Oc3cccc(NC(=O)Nc4cc(C(C)(CF)CF)on4)c3F)c2cc1OC [Ex 297, 1-(5-(1,3-difluoro-2-methylpropan-2-yl)isoxazol-3-yl)-3-(3-(6,7-dimethoxyquinazolin-4-yloxy)-2-fluorophenyl)urea]",C (0.20 < C ≦ 0.40)
5,"COc1cc2c(Oc3cccc(NC(=O)Nc4cc(C(F)(F)F)nn4-c4ccccc4)c3)ncnc2cc1OCCN1CCOCC1 [Ex 396, 1-(3-(6-Methoxy-7-(2-morpholinoethoxy)quinazolin-4-yloxy)phenyl)-3-(1-phenyl-3-(trifluoromethyl)-1H-pyrazol-5-yl)urea]",C (0.20 < C ≦ 0.40)
6,"COc1cc2ncnc(Sc3cccc(NC(=O)Nc4cc(C(C)(C)C)nn4-c4ccc(C(C)(C)C)cc4)c3)c2cc1OC [Ex 370, 1-(3-tert-butyl-1-(4-tert-butylphenyl)-1H-pyrazol-5-yl)-3-(3-(6,7-dimethoxyquinazolin-4-ylthio)phenyl)urea]",D (D > 0.40)
7,"CCOc1cc2c(Oc3cccc(NC(=O)Nc4cc(C(C)(C)C)nn4-c4ccccc4)c3)ncnc2cc1OC [Ex 390, 1-(3-tert-butyl-1-phenyl-1H-pyrazol-5-yl)-3-(3-(6-ethoxy-7-methoxyquinazolin-4-yloxy)phenyl)urea]",D (D > 0.40)
8,"COc1cc2ncnc(Sc3cccc(NC(=O)Nc4cc(C(C)(C)C)nn4-c4cccc(Cl)c4)c3)c2cc1OC [Ex 364, 1-(3-tert-butyl-1-(3-chlorophenyl)-1H-pyrazol-5-yl)-3-(3-(6,7-dimethoxyquinazolin-4-ylthio)phenyl)urea]",D (D > 0.40)
9,"COc1cc2ncnc(Oc3cccc(NC(=O)Nc4cc(C(C)(C)C(F)(F)F)on4)c3F)c2cc1OC [Ex 265, 1-(3-(6,7-dimethoxyquinazolin-4-yloxy)-2-fluorophenyl)-3-(5-(1,1,1-trifluoro-2-methylpropan-2-yl)isoxazol-3-yl)urea]",C (0.20 < C ≦ 0.40)
10,"COc1cc2ncnc(Sc3cccc(NC(=O)Nc4cc(C(F)(F)F)no4)c3)c2cc1OC [Ex 382, 1-(3-(6,7-dimethoxyquinazolin-4-ylthio)phenyl)-3-(3-(trifluoromethyl)isoxazol-5-yl)urea]",C (0.20 < C ≦ 0.40)
11,"COc1cc2ncnc(Oc3cccc(NC(=O)Nc4cc(C(C)(C)C(F)(F)F)on4)c3)c2cc1O [Ex 264, 1-(3-(6-hydroxy-7-methoxyquinazolin-4-yloxy)phenyl)-3-(5-(1,1,1-trifluoro-2-methylpropan-2-yl)isoxazol-3-yl)urea]",C (0.20 < C ≦ 0.40)
12,"COc1cc2c(Oc3cccc(NC(=O)Nc4cc(C(C)(C)C)on4)c3)ncnc2cc1OCCCN1CCS(=O)(=O)CC1 [Ex 256, 1-(5-tert-butyl-isoxazol-3-yl)-3-(3-{7-[3-(1,1-dioxo-thiomorpholin-4-yl)-propoxy]-6-methoxy-quinazolin-4-yloxy}-phenyl)-urea]",D (D > 0.40)
13,"CCOc1cc2ncnc(Oc3cccc(NC(=O)Nc4cc(C(C)(C)C)nn4-c4ccccc4)c3)c2cc1OC [Ex 387, 1-(3-tert-butyl-1-phenyl-1H-pyrazol-5-yl)-3-(3-(7-ethoxy-6-methoxyquinazolin-4-yloxy)phenyl)urea]",D (D > 0.40)
14,"COc1cc2ncnc(Oc3cccc(NC(=O)Nc4cc(C(C)(C)C)nn4-c4cccc(Cl)c4)c3)c2cc1OC [Ex 363, 1-(3-tert-butyl-1-(3-chlorophenyl)-1H-pyrazol-5-yl)-3-(3-(6,7-dimethoxyquinazolin-4-yloxy)phenyl)urea]",D (D > 0.40)
15,"COc1cc2ncnc(Oc3cccc(NC(=O)Nc4cc(C(F)(F)C(F)(F)F)nn4-c4ccccc4)c3)c2cc1OC [Ex 304, 1-(3-(6,7-dimethoxyquinazolin-4-yloxy)phenyl)-3-(3-(perfluoroethyl)-1-phenyl-1H-pyrazol-5-yl)urea]",C (0.20 < C ≦ 0.40)
16,"CCOc1cc2c(Oc3cccc(NC(=O)Nc4cc(C(F)(F)F)nn4-c4ccccc4)c3)ncnc2cc1OC [Ex 391, 1-(3-(6-ethoxy-7-methoxyquinazolin-4-yloxy)phenyl)-3-(1-phenyl-3-(trifluoromethyl)-1H-pyrazol-5-yl)urea]",C (0.20 < C ≦ 0.40)
17,"COc1cc2ncnc(Oc3ccc(Cl)c(NC(=O)Nc4cc(C(C)(C)C)nn4-c4ccccc4)c3)c2cc1OC [Ex 301, 1-(3-tert-butyl-1-phenyl-1H-pyrazol-5-yl)-3-(2-chloro-5-(6,7-dimethoxyquinazolin-4-yloxy)phenyl)urea]",D (D > 0.40)
18,"COc1cc2ncnc([S+]([O-])c3cccc(NC(=O)Nc4cc(C(C)(C)C)on4)c3)c2cc1OC (stereo not drawn) [Ex 253, 1-(5-tert-butylisoxazol-3-yl)-3-(3-(6,7-dimethoxyquinazolin-4-ylsulfinyl)phenyl)urea]",C (0.20 < C ≦ 0.40)
19,"COc1cc2ncnc(Sc3cccc(NC(=O)Nc4cc(C(C)(C)C(F)(F)F)no4)c3)c2cc1OC [Ex 268, 1-(3-(6,7-dimethoxyquinazolin-4-ylthio)phenyl)-3-(3-(1,1,1-trifluoro-2-methylpropan-2-yl)isoxazol-5-yl)urea]",C (0.20 < C ≦ 0.40)
